Reference: the supplement of paper PMC10307832

Assays:
Assay in all cases: relative viability (nuclei count vs DMSO), 5 days (fraction); higher = more cells survive
[1] = compound: CCn1c(-c2nonc2N)nc2c(C#CC(C)(C)O)ncc(OC[C@H]3CCCNC3)c21 + CC(C)C[C@H](NC(=O)[C@H](Cc1ccccc1)NC(=O)c1cnccn1)B(O)O [Bortezomib] (partner 0.002 µM)
Method in brief: (§1)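 Five library-drug doses in √10 steps were combined with a fixed anchor-drug dose, or a single drug was given alone, by pin tool to lung cancer cell lines in 1536-well plates the day after seeding. Nuclei were stained and counted after 5 days. Relative viability is the nuclei count in treated wells over that in vehicle wells, taken as the median of duplicate plates.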

[2] = compound: CCn1c(-c2nonc2N)nc2c(C#CC(C)(C)O)ncc(OC[C@H]3CCCNC3)c21 + C[C@]1(O)C[C@@H](c2nc(-c3ccc4ccc(-c5ccccc5)nc4c3)c3c(N)nccn32)C1 [Linsitinib] (partner 1 µM)
Method in brief: as §1

[3] = compound: CCn1c(-c2nonc2N)nc2c(C#CC(C)(C)O)ncc(OC[C@H]3CCCNC3)c21 + COc1cc2c(Oc3ccc(NC(=O)C4(C(=O)Nc5ccc(F)cc5)CC4)cc3F)ccnc2cc1OCCCN1CCOCC1 [Foretinib] (partner 0.25 µM)
Method in brief: as §1

BAM7 + Tozasertib = compound: CCOC1=CC=CC=C1N=NC2=C(NN(C2=O)C3=NC(=CS3)C4=CC=CC=C4)C [BAM7] + Cc1cc(Nc2cc(N3CCN(C)CC3)nc(Sc3ccc(NC(=O)C4CC4)cc3)n2)n[nH]1 [Tozasertib] (partner 0.1 µM)
Method in brief: as §1

Cell Line	relative viability ([1]; first compound 0.01 µM)	relative viability ([1]; first compound 0.03162 µM)	relative viability ([1]; first compound 0.1 µM)	relative viability ([1]; first compound 0.3162 µM)	relative viability ([1]; first compound 1 µM)	relative viability ([2]; first compound 0.01 µM)	relative viability ([2]; first compound 0.03162 µM)	relative viability ([2]; first compound 0.1 µM)	relative viability ([2]; first compound 0.3162 µM)	relative viability ([2]; first compound 1 µM)	relative viability ([3]; first compound 0.01 µM)	relative viability ([3]; first compound 0.03162 µM)	relative viability ([3]; first compound 0.1 µM)	relative viability ([3]; first compound 0.3162 µM)	relative viability ([3]; first compound 1 µM)	relative viability (BAM7 + Tozasertib; first compound 0.5 µM)	relative viability (BAM7 + Tozasertib; first compound 5 µM)	relative viability (BAM7 + Tozasertib; first compound 15.81 µM)	relative viability (BAM7 + Tozasertib; first compound 50 µM)
LCLC-103H	1.02	1.12	1.08	1.07	0.937	1.13	1.09	1.01	1.04	1.15	0.792	0.981	0.749	0.736	0.847	0.445	0.513	0.402	0.51
LOU-NH91	0.57	0.344	0.481	0.448	0.47	0.953	0.987	0.963	0.88	0.886	0.929	0.962	0.964	0.861	0.907	0.667	0.702	0.674	0.689
LU99A	1.21	1.29	1.04	1.04	1.08	0.473	0.524	0.551	0.579	0.548	0.797	0.797	0.814	0.776	0.899	0.273	0.275	0.288	0.266
LXF-289	1	0.963	1	0.976	1.02	0.971	0.945	0.96	0.882	0.951	0.983	1.05	0.979	0.952	0.955	0.206	0.215	0.183	0.19
NCI-H23	0.974	1.06	0.913	0.861	1.13	0.542	0.722	0.619	0.491	0.611	0.971	1.15	1.06	0.918	0.916	0.245	0.367	0.288	0.256
NCI-H322M	1.21	1.18	1.26	1.19	1.19	0.976	0.988	0.942	0.89	0.909	0.823	0.881	0.879	0.816	0.911	0.481	0.474	0.523	0.467
NCI-H441	0.47	0.451	0.459	0.288	0.449	0.592	0.556	0.67	0.592	0.657	1.08	0.967	0.836	1.16	0.875	0.643	0.562	0.526	0.627
NCI-H460	1.01	1.26	1.13	1.04	1.12	0.747	0.752	0.687	0.774	0.64	0.949	1.11	0.979	0.978	1.11	0.4	0.0975	0.123	0.131
NCI-H520	0.79	0.887	0.529	0.249	0.399	1.03	1.07	0.849	0.795	0.674	0.743	0.902	0.704	0.524	0.392	0.416	0.51	0.436	0.405
NCI-H596	1.02	0.956	0.969	1.38	0.999	0.993	1.08	0.931	1.03	1.03	0.895	1	0.744	0.84	0.639	1.11	0.936	0.789	0.9
NCI-H647	0.972	1.25	0.937	1.02	0.812	1.25	1.36	1.21	1.16	1.01	1.26	1.1	1.14	1.16	1.22	0.309	0.333	0.294	0.247
NCI-H650	0.679	0.604	0.759	0.758	0.635	0.714	0.79	0.959	0.766	0.789	1.01	0.979	0.993	1	1.13	0.803	0.861	0.702	0.796
NCI-H661	0.883	0.75	0.739	0.972	0.855	0.566	0.658	0.508	0.546	0.576	1.01	1.06	1.06	0.935	1.06	0.376	0.361	0.359	0.358
NCI-H727	0.782	0.747	0.999	0.613	0.791	0.271	0.313	0.257	0.309	0.288	0.833	1.22	0.693	0.877	1.08	0.496	0.599	0.555	0.52
NCI-H838	1.25	0.971	0.945	0.545	0.655	1.03	1.05	1.02	0.991	0.975	0.969	1.08	0.988	1.02	1.07	0.262	0.309	0.233	0.263
NCI-H1355	1.23	1.11	1.15	1.13	1.19	0.899	0.804	0.877	0.685	0.869	0.954	1.05	0.937	0.906	0.81	0.515	0.461	0.361	0.459
NCI-H1437	0.616	0.538	0.593	0.357	0.483	0.948	1.05	1.04	1.01	0.956	1.18	1.27	1.28	1.27	1.36	0.482	0.489	0.417	0.425

Cell Line	relative viability ([1]; first compound 0.01 µM)	relative viability ([1]; first compound 0.03162 µM)	relative viability ([1]; first compound 0.1 µM)	relative viability ([1]; first compound 0.3162 µM)	relative viability ([1]; first compound 1 µM)	relative viability ([2]; first compound 0.01 µM)	relative viability ([2]; first compound 0.03162 µM)	relative viability ([2]; first compound 0.1 µM)	relative viability ([2]; first compound 0.3162 µM)	relative viability ([2]; first compound 1 µM)	relative viability ([3]; first compound 0.01 µM)	relative viability ([3]; first compound 0.03162 µM)	relative viability ([3]; first compound 0.1 µM)	relative viability ([3]; first compound 0.3162 µM)	relative viability ([3]; first compound 1 µM)	relative viability (BAM7 + Tozasertib; first compound 0.5 µM)	relative viability (BAM7 + Tozasertib; first compound 5 µM)	relative viability (BAM7 + Tozasertib; first compound 15.81 µM)	relative viability (BAM7 + Tozasertib; first compound 50 µM)
NCI-H1651	0.905	0.901	0.864	0.903	0.989	0.926	0.941	0.919	0.871	0.958	0.865	0.807	0.743	0.521	0.779	0.674	0.758	0.637	0.638
NCI-H1666	0.688	0.678	0.869	0.762	0.841	0.805	0.92	0.928	0.732	0.738	0.946	0.957	0.982	1.02	1.02	0.586	0.57	0.613	0.591
NCI-H1734	0.872	0.965	0.875	0.344	0.648	0.872	0.879	0.782	0.817	0.884	0.765	0.841	0.801	0.748	0.799	0.289	0.253	0.246	0.248
NCI-H1755	0.956	0.917	0.939	0.923	0.906	1.04	1.02	1	0.954	1.01	0.993	0.933	0.899	0.841	0.95	0.602	0.615	0.55	0.644
NCI-H1915	0.982	1.01	0.904	0.975	0.921	1.08	1.1	1.05	1.12	1.08	1.11	1.1	1.08	1.01	1	0.443	0.4	0.405	0.399
NCI-H1975	0.379	0.351	0.438	0.314	0.289	0.887	1.02	0.913	0.791	0.86	0.983	1.04	0.937	0.95	0.885	0.41	0.512	0.465	0.512
NCI-H1993	1.23	1.23	1.11	1.03	0.975	0.774	0.736	0.758	0.731	0.767	0.693	0.835	0.785	0.733	0.714	0.564	0.639	0.582	0.505
NCI-H2009	0.997	0.944	1.05	1.03	0.958	1.15	1.19	1.27	1.1	1.19	1.22	1.21	1.31	1.22	1.22	0.832	0.763	0.62	0.608
NCI-H2023	0.924	0.977	0.904	0.861	0.912	0.683	0.664	0.708	0.446	0.569	0.775	0.887	0.801	0.781	0.755	0.234	0.161	0.125	0.177
NCI-H2085	0.861	1.02	1.03	1.03	1.05	0.843	0.91	0.804	0.879	0.921	0.857	0.901	0.985	0.994	0.881	0.608	0.496	0.401	0.567
NCI-H2087	0.682	0.873	0.655	0.766	0.774	0.966	0.746	0.932	0.924	0.838	0.927	1.06	1.15	0.981	1.03	0.227	0.244	0.211	0.205
NCI-H2126	1.05	1.13	1.08	1.09	1.1	0.751	0.716	0.695	0.671	0.788	1.1	1.16	1.25	1.11	1.2	0.836	0.679	0.643	0.74
NCI-H2228	1.06	1.28	0.912	0.584	0.737	0.682	0.65	0.645	0.585	0.475	0.762	0.985	0.767	0.555	0.872	0.239	0.23	0.208	0.286
NCI-H2347	0.644	0.861	–	0.888	0.933	1.05	0.983	0.958	0.904	0.991	0.836	0.841	–	0.798	0.676	0.75	0.426	–	0.525
NCI-H2405	0.982	0.897	0.91	0.929	0.967	0.924	1.06	–	0.794	1.02	1.06	1.05	0.948	1.03	1.05	0.721	0.809	0.73	0.721
NCI-H3122	1.05	1.03	1.07	1.1	1.08	1.05	0.944	0.972	1.01	1.03	0.923	0.941	0.962	1	0.883	0.44	0.387	0.351	0.324
